Source: PubChem BioAssay (NCI)
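1) Cells in 96-well plates. 2) Compound, 48 h, 5 concentrations. 3) Linear interpolation between surrounding doses. 4) Unreached endpoint = highest concentration. TGI denotes the concentration required for complete inhibition of growth.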

Legend:
Assay in all cases: NCI tumour cell line growth inhibition, 48 h
[1] = system: PC-3 prostate
[2] = system: A498 renal
[3] = system: SN12C renal
[4] = system: NCI-H226 lung
[5] = system: SK-MEL-5 melanoma
[6] = system: HOP-92 NSCLC
[7] = system: MALME-3M melanoma
[8] = system: 786-0 renal
[9] = system: UACC-62 melanoma
[10] = system: UACC-257 melanoma
[11] = system: NCI-H23 lung
[12] = system: NCI-H522 lung
[13] = system: CAKI-1 renal
[14] = system: HCT-15 colon
[15] = system: SK-OV-3 ovarian
[16] = system: SK-MEL-28 melanoma
[17] = system: OVCAR-4 ovarian
[18] = system: HOP-62 NSCLC
[19] = system: OVCAR-8 ovarian
[20] = system: HL-60(TB) leukemia
[21] = system: SK-MEL-2 melanoma
[22] = system: HCC-2998 colon
[23] = system: RXF 393 renal
[24] = system: KM12 colon
[25] = system: CCRF-CEM leukemia
[26] = system: A549 NSCLC
[27] = system: SNB-19 CNS
[28] = system: K-562 leukemia
[29] = system: OVCAR-3 ovarian
[30] = system: RPMI-8226 leukemia
[31] = system: M14 melanoma
[32] = system: OVCAR-5 ovarian
[33] = system: LOX IMVI melanoma
[34] = system: TK-10 renal
[35] = system: SNB-75 CNS
[36] = system: HT29 colon
[37] = system: U251 CNS
[38] = system: ACHN renal
[39] = system: MDA-MB-231 breast
[40] = system: MCF7 breast
[41] = system: SR leukemia
[42] = system: NCI-H460 lung
[43] = system: COLO 205 colon
[44] = system: SF-268 CNS
[45] = system: IGROV1 ovarian
[46] = system: SF-539 CNS
[47] = system: DU-145 prostate
[48] = system: SF-295 CNS
[49] = system: MOLT-4 leukemia
[50] = system: HCT-116 colon
[51] = system: EKVX NSCLC
[52] = system: MDA-MB-435
[53] = system: SW-620 colon
[54] = system: HS 578T breast
[55] = system: NCI/ADR-RES ovarian
[56] = system: MDA-N

Measured: TGI

CCOC(CNc1nn2c(C)nnc2s1)OCC
> 100 µM: [1] | [2] | [3] | [4] | [5] | [6] | [7] | [8] | [9] | [10] | [11] | [12] | [13] | [14] | [15] | [16] | [17] | [18] | [19] | [20] | [21] | [22] | [23] | [24] | [25] | [26] | [27] | [28] | [29] | [30] | [31] | [32] | [33] | [34] | [35] | [36] | [37] | [38] | [39] | [40] | [41] | [42] | [43] | [44] | [45] | [46] | [47] | [48] | [49] | [50] | [51] | [52] | [53] | [54] | [55] | [56]
